Experimental findings from patent publication US11541055B2, “Inhibitors of human immunodeficiency virus replication” (ViiV Healthcare UK (No. 5) LIMITED, priority 2018, dated 2023) are described below.

In series [1] the test system is recombinant NL4-3 virus (Renilla luciferase) in MT-2 cells. As to the kind of experiment: HIV cell culture assay (antiviral activity, luciferase readout). The series is classed as cell-based. The settings on record: Renilla, NL43. The method in brief: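 Antiviral EC50 was derived via the median effect equation from luciferase signal. The signal came from MT-2 cultures infected for 4–5 days with a nef-deleted, Renilla luciferase-expressing NL4-3 reporter virus (made in 293T cells) in the presence of compound dilutions.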

The nature of series [2]: Compound cytotoxicity, XTT-based colorimetric assay. The series is classed as cell-based. The settings on record: human; uninfected MT2 cells, day 4, XTT. The method in brief:
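Run under the antiviral-assay protocol but without virus. Viability was read on day 4 and CC50 values were derived from the readout.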

A value given as a limit tells only on which side of the number the result lay.

In the case of `Cc1cc(-c2ccc3c(=O)n(-c4ccc(Cl)c5c(NS(=O)(=O)C6CC6)nn(CC(F)F)c45)c([C@H](Cc4cc(F)cc(F)c4)NC(=O)Cn4nc(C(F)F)c5c4C(F)(F)[C@@H]4C[C@H]54)nc3c2)nc(C)n1` (atropisomer, axis not shown; (P)) [Example 85, N—((S)-1-((3P)-3-(4-chloro-3-(cyclopropanesulfonamido)-1-(2,2-difluoroethyl)-1H-indazol-7-yl)-7-(2,6-dimethylpyrimidin-4-yl)-4-oxo-3,4-dihydroquinazolin-2-yl)-2-(3,5-difluorophenyl)ethyl)-2-((3bS,4aR)-3-(difluoromethyl)-5,5-difluoro-3b,4,4a,5-tetrahydro-1H-cyclopropa[3,4]cyclopenta[1,2-c]pyrazol-1-yl)acetamide], the EC50 in series [1] stood at 0.088 nM. The same compound yielded a CC50 at 4 days in series [2] of more than 500 nM.
Regarding `O=C(Cn1nc(C(F)F)c2c1C(F)(F)[C@@H]1C[C@H]21)N[C@@H](Cc1cc(F)cc(F)c1)c1nc2cc(-c3nccc(C(F)F)n3)ccc2c(=O)n1-c1ccc(Cl)c2c(NS(=O)(=O)C3CC3)nn(CC(F)F)c12` (atropisomer, axis not shown; (P)) [Example 86, N—((S)-1-((3P)-3-(4-chloro-3-(cyclopropanesulfonamido)-1-(2,2-difluoroethyl)-1H-indazol-7-yl)-7-(4-(difluoromethyl)pyrimidin-2-yl)-4-oxo-3,4-dihydroquinazolin-2-yl)-2-(3,5-difluorophenyl)ethyl)-2-((3bS,4aR)-3-(difluoromethyl)-5,5-difluoro-3b,4,4a,5-tetrahydro-1H-cyclopropa[3,4]cyclopenta[1,2-c]pyrazol-1-yl)acetamide], the EC50 in series [1] is 0.078 nM. The CC50 at 4 days in series [2] is more than 500 nM.
On the same counts, the results for `Cc1nnc(-c2ccc3c(=O)n(-c4ccc(Cl)c5c(NS(=O)(=O)C6CC6)nn(CC(F)F)c45)c([C@H](Cc4cc(F)cc(F)c4)NC(=O)Cn4nc(C(F)F)c5c4C(F)(F)[C@@H]4C[C@H]54)nc3c2)nc1C` (atropisomer, axis not shown; (P)) [Example 87, N—((S)-1-((3P)-3-(4-chloro-3-(cyclopropanesulfonamido)-1-(2,2-difluoroethyl)-1H-indazol-7-yl)-7-(5,6-dimethyl-1,2,4-triazin-3-yl)-4-oxo-3,4-dihydroquinazolin-2-yl)-2-(3,5-difluorophenyl)ethyl)-2-((3bS,4aR)-3-(difluoromethyl)-5,5-difluoro-3b,4,4a,5-tetrahydro-1H-cyclopropa[3,4]cyclopenta[1,2-c]pyrazol-1-yl)acetamide] are 0.058 nM and more than 500 nM.
On the same counts, the results for `Cc1ccc(-c2ccc3c(=O)n(-c4ccc(Cl)c5c(NS(=O)(=O)C6CC6)nn(CC(F)F)c45)c([C@H](Cc4cc(F)cc(F)c4)NC(=O)Cn4nc(C(F)F)c5c4C(F)(F)[C@@H]4C[C@H]54)nc3c2)nn1` (atropisomer, axis not shown; (P)) [Example 88, N—((S)-1-((3P)-3-(4-chloro-3-(cyclopropanesulfonamido)-1-(2,2-difluoroethyl)-1H-indazol-7-yl)-7-(6-methylpyridazin-3-yl)-4-oxo-3,4-dihydroquinazolin-2-yl)-2-(3,5-difluorophenyl)ethyl)-2-((3bS,4aR)-3-(difluoromethyl)-5,5-difluoro-3b,4,4a,5-tetrahydro-1H-cyclopropa[3,4]cyclopenta[1,2-c]pyrazol-1-yl)acetamide] are 0.058 nM and more than 500 nM.
On the same counts, the results for `O=C(Cn1nc(C(F)F)c2c1C(F)(F)[C@@H]1C[C@H]21)N[C@@H](Cc1cc(F)cc(F)c1)c1nc2cc(-c3cccnn3)ccc2c(=O)n1-c1ccc(Cl)c2c(NS(=O)(=O)C3CC3)nn(CC(F)F)c12` (atropisomer, axis not shown; (P)) [Example 89, N—((S)-1-((3P)-3-(4-chloro-3-(cyclopropanesulfonamido)-1-(2,2-difluoroethyl)-1H-indazol-7-yl)-4-oxo-7-(pyridazin-3-yl)-3,4-dihydroquinazolin-2-yl)-2-(3,5-difluorophenyl)ethyl)-2-((3bS,4aR)-3-(difluoromethyl)-5,5-difluoro-3b,4,4a,5-tetrahydro-1H-cyclopropa[3,4]cyclopenta[1,2-c]pyrazol-1-yl)acetamide] are 0.075 nM and more than 500 nM.
Turning to `COc1ccc(-c2ccc3c(=O)n(-c4ccc(Cl)c5c(NS(=O)(=O)C6CC6)nn(CC(F)F)c45)c([C@H](Cc4cc(F)cc(F)c4)NC(=O)Cn4nc(C(F)F)c5c4C(F)(F)[C@@H]4C[C@H]54)nc3c2)nn1` (atropisomer, axis not shown; (P)) [Example 90, N—((S)-1-((3P)-3-(4-chloro-3-(cyclopropanesulfonamido)-1-(2,2-difluoroethyl)-1H-indazol-7-yl)-7-(6-methoxypyridazin-3-yl)-4-oxo-3,4-dihydroquinazolin-2-yl)-2-(3,5-difluorophenyl)ethyl)-2-((3bS,4aR)-3-(difluoromethyl)-5,5-difluoro-3b,4,4a,5-tetrahydro-1H-cyclopropa[3,4]cyclopenta[1,2-c]pyrazol-1-yl)acetamide], the EC50 in series [1] stood at 0.085 nM. The compound also registered a CC50 at 4 days in series [2] of more than 500 nM.
Take `CC(C)c1nccc(-c2ccc3c(=O)n(-c4ccc(Cl)c5c(NS(=O)(=O)C6CC6)nn(CC(F)F)c45)c([C@H](Cc4cc(F)cc(F)c4)NC(=O)Cn4nc(C(F)F)c5c4C(F)(F)[C@@H]4C[C@H]54)nc3c2)n1` (atropisomer, axis not shown; (P)) [Example 91, N—((S)-1-((3P)-3-(4-chloro-3-(cyclopropanesulfonamido)-1-(2,2-difluoroethyl)-1H-indazol-7-yl)-7-(2-isopropylpyrimidin-4-yl)-4-oxo-3,4-dihydroquinazolin-2-yl)-2-(3,5-difluorophenyl)ethyl)-2-((3bS,4aR)-3-(difluoromethyl)-5,5-difluoro-3b,4,4a,5-tetrahydro-1H-cyclopropa[3,4]cyclopenta[1,2-c]pyrazol-1-yl)acetamide]: in series [1], the EC50 was found to be 0.19 nM. For the same compound, the CC50 at 4 days in series [2] is more than 500 nM.
In the case of `Cc1nc(C)c(C)c(-c2ccc3c(=O)n(-c4ccc(Cl)c5c(NS(=O)(=O)C6CC6)nn(CC(F)F)c45)c([C@H](Cc4cc(F)cc(F)c4)NC(=O)Cn4nc(C(F)F)c5c4C(F)(F)[C@@H]4C[C@H]54)nc3c2)n1` (atropisomer, axis not shown; (P)) [Example 92, N—((S)-1-((3P)-3-(4-chloro-3-(cyclopropanesulfonamido)-1-(2,2-difluoroethyl)-1H-indazol-7-yl)-4-oxo-7-(2,5,6-trimethylpyrimidin-4-yl)-3,4-dihydroquinazolin-2-yl)-2-(3,5-difluorophenyl)ethyl)-2-((3bS,4aR)-3-(difluoromethyl)-5,5-difluoro-3b,4,4a,5-tetrahydro-1H-cyclopropa[3,4]cyclopenta[1,2-c]pyrazol-1-yl)acetamide], the EC50 in series [1] was determined as 0.1 nM. Moreover, the CC50 at 4 days in series [2] is more than 500 nM.
Turning to `CCc1ccnc(-c2ccc3c(=O)n(-c4ccc(Cl)c5c(NS(=O)(=O)C6CC6)nn(CC(F)F)c45)c([C@H](Cc4cc(F)cc(F)c4)NC(=O)Cn4nc(C(F)F)c5c4C(F)(F)[C@@H]4C[C@H]54)nc3c2)n1` (atropisomer, axis not shown; (P)) [Example 93, N—((S)-1-((3P)-3-(4-chloro-3-(cyclopropanesulfonamido)-1-(2,2-difluoroethyl)-1H-indazol-7-yl)-7-(4-ethylpyrimidin-2-yl)-4-oxo-3,4-dihydroquinazolin-2-yl)-2-(3,5-difluorophenyl)ethyl)-2-((3bS,4aR)-3-(difluoromethyl)-5,5-difluoro-3b,4,4a,5-tetrahydro-1H-cyclopropa[3,4]cyclopenta[1,2-c]pyrazol-1-yl)acetamide], the EC50 in series [1] is 0.18 nM. Moreover, the CC50 at 4 days in series [2] is more than 500 nM.
Turning to `CCc1cc(-c2ccc3c(=O)n(-c4ccc(Cl)c5c(NS(=O)(=O)C6CC6)nn(CC(F)F)c45)c([C@H](Cc4cc(F)cc(F)c4)NC(=O)Cn4nc(C(F)F)c5c4C(F)(F)[C@@H]4C[C@H]54)nc3c2)nc(C)n1` (atropisomer, axis not shown; (P)) [Example 94, N—((S)-1-((3P)-3-(4-chloro-3-(cyclopropanesulfonamido)-1-(2,2-difluoroethyl)-1H-indazol-7-yl)-7-(6-ethyl-2-methylpyrimidin-4-yl)-4-oxo-3,4-dihydroquinazolin-2-yl)-2-(3,5-difluorophenyl)ethyl)-2-((3bS,4aR)-3-(difluoromethyl)-5,5-difluoro-3b,4,4a,5-tetrahydro-1H-cyclopropa[3,4]cyclopenta[1,2-c]pyrazol-1-yl)acetamide], in series [1], the EC50 came out at 0.13 nM. Also, the CC50 at 4 days in series [2] is more than 500 nM.
Consider `CS(=O)(=O)c1cccnc1-c1ccc2c(=O)n(-c3ccc(Cl)c4c(NS(=O)(=O)C5CC5)nn(CC(F)F)c34)c([C@H](Cc3cc(F)cc(F)c3)NC(=O)Cn3nc(C(F)F)c4c3C(F)(F)[C@@H]3C[C@H]43)nc2c1` (atropisomer, axis not shown; (P)) [Example 95, N—((S)-1-((3P)-3-(4-chloro-3-(cyclopropanesulfonamido)-1-(2,2-difluoroethyl)-1H-indazol-7-yl)-7-(3-(methylsulfonyl)pyridin-2-yl)-4-oxo-3,4-dihydroquinazolin-2-yl)-2-(3,5-difluorophenyl)ethyl)-2-((3bS,4aR)-3-(difluoromethyl)-5,5-difluoro-3b,4,4a,5-tetrahydro-1H-cyclopropa[3,4]cyclopenta[1,2-c]pyrazol-1-yl)acetamide], for which the EC50 in series [1] worked out at 0.053 nM. In addition, the CC50 at 4 days in series [2] was more than 500 nM.

The term EC50 denotes the midpoint of the concentration-response curve. For orientation: CC50 means the concentration giving 50% cytotoxicity. A low value points to harm at low concentration.
